Experimental findings from PubChem BioAssay AID463229 (Broad Institute, 2010) are described below.

Structures are written as SMILES. Calls of active or inactive are those of the source.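 Rule for the calls: active = compounds raising the signal whose fitted half-maximal concentration is at or below their top tested dose (cut at about 25 µM in these data); inconclusive = flat fit at 30 to 70% activity, or a poor fit; inactive = the rest.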

The test relates to INS-1E rat beta cells, no cytokines, CellTiter-Glo ATP, 48 h. Description: ATP level change in INS-1E without cytokines, dose response, counter-screen for beta-cell apoptosis protection project, INS-1E rat cells, ATP luminescence, cherry pick (AID 463229). For orientation: A counterscreen serves to expose hits that act by an unwanted route or on another target.
By AC50 is commonly meant the concentration giving half of the maximal activity seen. In the case of `Cc1nc2c3cc(F)ccc3n(Cc3ccccc3)c2s1`, the AC50 is > 26 µM (inactive). With `Cc1ccc(-c2cc3cccc[n+]3cc2-c2ccc(C)cc2)cc1` the figure was 0.566 µM. With `C/C(=N\NC(=O)c1ccc(Cl)c(Cl)c1)c1ccccn1` the figure was 0.98 µM. With `COCC1CCCCN1C(=O)c1cc(COc2ccc3ncccc3c2)on1` (configuration not stated) the figure was 7.39 µM; with `C#CC[N+](C)(C)CCCCCCCCCCCC`, 6.1 µM; with `COC1=C(Nc2ccccc2OC)C(=O)c2ccccc2C1=O`, > 26 µM (inactive).

As to `CCOC(=O)c1c(CSc2nc(C)cc(C)c2C#N)n(C)c2cc(Br)c(OC(C)=O)cc12`, the AC50 was 3.73 µM. With `Cc1ccc(C)c(N2CCN(C(=O)CCCOc3cc(=O)n(C)c4ccccc34)CC2)c1` the figure was 2.7 µM; with `COc1cc(SC)ccc1C(=O)Nc1nc2ccccc2[nH]1`, 1.21 µM; with `Cc1cccc(C(=O)Nc2ccc(C(=O)/C=C/c3cccnc3)cc2)c1`, 7.53 µM. As for `CCCCNc1c(-c2ccc(SC3CCCCC3)cc2)nc2ccccn12`, the AC50 is 5.31 µM. As for `CC(Oc1ccc(Cl)cc1Cl)c1nc(-c2ccc(NC(=O)c3cccnc3)cc2)no1` (configuration not stated), the figure is 0.906 µM. With `COc1ccc(C(=O)N/N=C(\C)c2ccccn2)cc1OC` the figure was 2.54 µM. Take `Cc1cnc(NC(=O)CN2CCN(c3ccccn3)CC2)s1`: the AC50 was 4.35 µM. As for `CCN1CCN(C2=C(NS(=O)(=O)c3ccccc3)C(=O)c3ccccc3C2=O)CC1`, the figure is 20.3 µM; as for `CCN(c1ccccc1)S(=O)(=O)c1ccc(C(=O)NC2CCN(Cc3ccccc3)CC2)cc1`, 6.36 µM; as for `COc1ccc2c(c1)C(=O)[C@H](O)[C@@H](c1ccc(OC)c(Br)c1)O2`, 7.97 µM. As for `Nc1nc(F)nc2c1ncn2[C@@H]1O[C@H](CO)[C@@H](O)[C@H]1O`, the figure is 0.699 µM; as for `FC(F)(F)c1cnc(NNC(=S)Nc2ccccc2Cl)c(Cl)c1`, 7.03 µM; as for `Cc1ccc(S(=O)(=O)N2CCOCC2)cc1C(=O)Nc1nc(-c2ccccn2)cs1`, 7.77 µM. With `CCCN(CCC)c1nc(-c2ccccn2)nc2ccccc12` the figure was 4.34 µM. Turning to `O=C(CCC1CCCC1)Nc1ccc(C(=O)NCc2cccnc2)cc1`, the AC50 was under 0.195 µM. As for `c1ccc(CSc2ccc(-c3ccccn3)nn2)cc1`, the figure is 18.8 µM.

In the case of `CCOC(=O)c1c(NC(=O)C[n+]2ccc(Cc3ccccc3)cc2)sc(C)c1C`, the AC50 was 10.9 µM.

Turning to `Cc1nc(C)c(-c2csc(NCCc3ccccc3)n2)s1`, the AC50 is 24.1 µM. As for `C(=N\Nc1ncnc2sc3c(c12)CCC3)/c1cccs1`, the figure is 9.08 µM; as for `CCCCc1ccc(N/C(N)=N/c2nc(C)cc(C)n2)cc1`, 5.12 µM; as for `O=[N+]([O-])c1ccc(O)c(/C=N/Nc2nc3ccccc3[nH]2)c1`, 2.01 µM.

Turning to `Cc1ccc(NC(=O)c2nc(S(=O)(=O)Cc3ccccc3)ncc2Cl)cc1`, the AC50 is 15.3 µM. `Cc1ccc(NC2=CC(=O)C(=O)c3ccccc32)c(C)c1`: the AC50 was 4.39 µM. As to `O=C(NC(NC(=S)Nc1ccc(Cl)cc1Cl)C(Cl)(Cl)Cl)c1cccc([N+](=O)[O-])c1` (configuration not stated), the AC50 is 7.31 µM. With `Cc1cc(-c2ccccc2)n(-c2cc(N/N=C/c3ccccc3O)ncn2)n1` the figure was 7.17 µM; with `CCN(CC)c1ccc(C(=O)N/N=C/c2ccccc2OC(F)F)cc1`, 15.6 µM. With `COc1ccc(Br)cc1CN1CCN(Cc2c[nH]c3ccccc23)CC1` the figure was 7.35 µM; with `CCOc1cccc(/C=N/Nc2ccc(S(=O)(=O)N(CC)CC)cn2)c1O`, 3.67 µM; with `OCc1ccc(O)c2ncccc12`, 2.38 µM. As for `COc1ccc(C2NCCc3c2[nH]c2ccccc32)cc1COc1ccc(F)cc1` (configuration not stated), the figure is 14 µM; as for `O=C(NC(c1ccc(Cl)cc1)c1cc(Cl)c2cccnc2c1O)c1cccnc1` (configuration not stated), 6.6 µM. For the molecule `CCCCNC(=O)c1ccc(Cn2c(=S)[nH]c3c([nH]c4ccc(OC)cc43)c2=O)cc1`, the AC50 was 6.92 µM. With `Cc1occc(=O)c1OC(=O)Nc1ccc(Cl)c(Cl)c1` the figure was 7.74 µM. On to `Oc1ccc(Nc2nc(N3CCCC3)c3ccccc3n2)cc1`, for which the AC50 was 18.9 µM. Take `CCCCCc1ccc(OCCCC[n+]2cccc(C)c2)c(CCCCC)c1`: the AC50 was 2.1 µM. With `COc1ccc2c(c1)C(=O)[C@@H](O)[C@H](c1ccc(OC)c(Br)c1)O2` the figure was 10.4 µM. For `Cc1ccccc1OCCn1c(C)nc2ccccc21`, the AC50 is 15.2 µM. Consider `CCc1c(C2(O)CCCCC2)[nH]c2cc(C(F)(F)F)ccc12`, for which the AC50 is 11 µM.

As to `CCn1c(=NC(=O)CCS(=O)(=O)c2ccccc2)sc2cccc(OC)c21`, the AC50 is 7.2 µM.

For `Cc1c(C)c2cccnc2c2ncccc12`, the AC50 was 2.49 µM. For the molecule `COC(=O)[C@H](CC(C)C)N(Cc1ccccc1)S(=O)(=O)N(Cc1ccccc1)[C@@H](CC(C)C)C(=O)OC`, the AC50 was 15.5 µM. With `O=[N+]([O-])c1ccc(Sc2cccc3cccnc23)c([N+](=O)[O-])c1` the figure was 14.5 µM; with `Cc1sc2ncnc(NC3CCN(Cc4ccccc4)CC3)c2c1C`, 5.11 µM; with `COc1cccc(/C=N/Nc2ncc(C(F)(F)F)cc2Cl)c1O`, 4.26 µM. With `CNc1ccc2oc(C[C@H]3O[C@@]4(CC[C@H]3C)O[C@H]([C@H](C)C(=O)c3ccc[nH]3)[C@H](C)C[C@H]4C)nc2c1C(=O)O` the figure was 1.32 µM; with `c1ccc(C2(Cn3ccc4ccccc43)OCCO2)cc1`, > 26 µM (inactive); with `CCOC(=O)c1nc(NNC(=O)c2ccc([N+](=O)[O-])cc2)sc1C`, 7.04 µM. As for `CC1CCN(Cc2c(C(=O)N/N=C/c3cc(Cl)ccc3O)nnn2-c2nonc2N)CC1`, the figure is 2.08 µM.

Consider `OCCCNc1c2ccccc2nc2ccccc12`, for which the AC50 was 9.09 µM.

For the molecule `Cc1cc(C2CCCCC2)n(O)c(=O)c1`, the AC50 is 2.69 µM. Turning to `CCCCCCCCCCCCn1ccc(=N)cc1`, the AC50 was 0.515 µM. Consider `CC(=O)c1ccc(N2CCN(S(=O)(=O)c3ccc4c(c3)CC(C)N4C(C)=O)CC2)cc1` (configuration not stated), for which the AC50 was 8.54 µM. With `CCOc1cc(N2CCOCC2)c(OCC)cc1NC(=O)COc1cccc2cccnc12` the figure was 3.61 µM; with `Cc1ccc(C)c(NC(=O)c2ccccc2NS(=O)(=O)c2cc([N+](=O)[O-])ccc2C)c1`, 3.94 µM. With `Cc1sc2ncnc(NCC3COc4ccccc4O3)c2c1C` (configuration not stated) the figure was 2.34 µM. For the molecule `N#C/C(=C/c1ccc(N2CCCCCC2)o1)c1ccc(Cl)cc1`, the AC50 is 24.3 µM.

For `Cn1c(SCC(=O)N/N=C/c2ccc([N+](=O)[O-])s2)nnc1-c1ccc(Cl)cc1`, the AC50 was 12.1 µM. As for `CCOC(=O)/C(=C\c1ccc([N+](=O)[O-])cc1)C(=O)c1cc(C(C)=O)c(Nc2ccccc2)s1`, the figure is 2.41 µM; as for `COc1cccc2sc(Nc3nc(-c4ccccn4)cs3)nc12`, 3.75 µM.

Turning to `COc1ccc(C(=O)N/N=C(\c2ccccc2)c2ccccn2)cc1`, the AC50 is 3.51 µM. With `c1ccc(-c2csc3ncnc(NCC4COc5ccccc5O4)c23)cc1` (configuration not stated) the figure was 2.79 µM; with `C/C(=N\NC(=O)c1ccc(Cl)cc1)c1ccccn1`, 1.62 µM; with `CCCCCCC(=O)N1C/C=C\C(c2ccc(OC)cc2)N(Cc2ccc(F)cc2)C(=O)[C@H]1Cc1ccccc1` (some centres not stated), 5.73 µM.

As to `COc1ccc(CC(=O)Nc2ccncc2Cl)cc1`, the AC50 was 10.6 µM. As for `CC(Nc1ncnc2ccccc12)c1ccccc1` (configuration not stated), the figure is 3.58 µM. As for `CC(=O)Nc1sc2c(c1-c1nc3ccccc3s1)CN(C(C)C)CC2`, the figure is 3.79 µM. As for `CC(C)CNC(=O)COC(=O)c1c2c(nc3ccccc13)/C(=C/c1cccs1)CC2`, the figure is 1.5 µM; as for `C=C[C@H](Cc1ccccc1)N(Cc1ccccc1)S(=O)(=O)N(Cc1ccccc1)[C@H](C=C)Cc1ccccc1`, 4.79 µM. Turning to `Cc1ccc(-c2cc(-c3ccc(C)cc3)[n+](-c3ccccc3)c(-c3ccc(C)cc3)c2)cc1`, the AC50 was 0.577 µM.

`CCOC(=O)c1ccc(-[n+]2c(-c3ccccc3)cc(-c3ccccc3)cc2-c2ccccc2)cc1`: the AC50 is 2.27 µM.

As to `Oc1ccc2ccccc2c1/C=N/Nc1nnc(-c2ncc[nH]2)c2ccccc12`, the AC50 was 3.39 µM. As for `Cc1ccc(-n2ncc3c2CCCC3NC(=O)c2ocnc2C)cc1C` (configuration not stated), the figure is 6.97 µM. With `Cc1ccc(S(=O)(=O)/N=C2\C(=O)c3ccccc3C([O-])=C2n2cc[n+](CCC(C)C)c2)cc1` the figure was 16.7 µM. With `Cc1nc(C(=O)NNC(=O)c2c(-c3c(Cl)cccc3Cl)noc2C)cs1` the figure was 19.9 µM; with `COc1cc(SC#N)ccc1N=Cc1c(C)[nH]n(-c2ccc(C)c(C)c2)c1=O`, 5.85 µM. As to `Cn1c(=O)[nH]c(=O)c2c1nc([N+](=O)[O-])n2Cc1ccccc1`, the AC50 is 6.67 µM.

In the case of `O=C(c1cc(COc2cccc3cnccc23)on1)N1CCCC(CCCO)C1` (configuration not stated), the AC50 was 2.04 µM. With `O=C(NCc1cccnc1)/C(=C/c1ccc(-c2ccc(Cl)cc2)o1)S(=O)(=O)c1ccccc1` the figure was 6.93 µM; with `COc1ccc(C(NC(=O)C(C)C)c2ccc3cccnc3c2O)cc1` (configuration not stated), 2.84 µM; with `Cc1ccc(-c2cc(-c3ccc(C)cc3)[n+](-c3ccc(C(=O)[O-])cc3)c(-c3ccc(C)cc3)c2)cc1`, 7.24 µM. With `CCOc1cccc(/C=N/NC(=O)c2ccc3c(c2)OCCO3)c1O` the figure was 8.21 µM; with `Cc1cc(=O)[nH]c(N/N=C/c2ccccn2)n1`, 5.21 µM; with `CCC(=O)NC(c1ccccc1OC)c1ccc2cccnc2c1O` (configuration not stated), 4.29 µM.

`COc1ccc(NS(=O)(=O)c2ccc(N3CCOCC3)c(N)c2)cc1`: the AC50 was 7.12 µM.

Take `CCC(C)c1ccc(NC(=S)NC2CCN(Cc3ccccc3)CC2)cc1` (configuration not stated): the AC50 is 10.4 µM. With `Clc1ccc2c(N/N=C/c3cccc(Br)c3)ccnc2c1`, the AC50 is 10.7 µM. With `Clc1ccc(C(c2ccc(Cl)cc2)n2cc[n+](CC(OCc3ccc(Cl)cc3Cl)c3ccc(Cl)cc3Cl)c2)cc1` (configuration not stated) the figure was 3.69 µM.

Consider `COc1ccc(CNCCC(c2ccc(OC(C)C)cc2)c2ccccc2OC)cc1` (configuration not stated), for which the AC50 is 12.2 µM. With `c1ccc2c(c1)ncn2CCCCOc1ccc2c(c1)CCC2` the figure was 7.37 µM; with `CC(C)(C)CN1CCC(Oc2cccc(C(=O)NCCCOc3cccnc3)c2)CC1`, 2.13 µM.
